Experimental data as given in paper PMC11124362, “Metabolism, Disposition, Excretion, and Potential Transporter Inhibition of 7–16, an Improving 5-HT2A Receptor Antagonist and Inverse Agonist for Parkinson’s Disease” (Molecules, 2024).

What was measured:
CYP2C9 = assay: Metabolic phenotype by rhCYP isozymes, CYP2C9; format: in vitro ADME, human; conditions: 7–16 1 µM
Method: (§1) Based on the result of metabolite identification, two metabolites were selected as targets for metabolic phenotyping analysis. Seven CYP isozymes (CYP1A2, CYP2B6, CYP2C8, CYP2C9, CYP2C19, CYP2D6, and CYP3A4) were investigated using the rhCYP isozymes method. In brief, 7–16 (1 µΜ) was incubated with each rhCYP isozyme ([…]) in 100 mM sodium phosphate buffer (pH 7.4) containing 3 mM magnesium chloride. After 10 min of preincubation at 37 °C, the reactions were initiated by adding NADPH (1 mM) and then incubated at 37 °C in a shaking water bath for 0, 5, 15, and 30 min. The specific substrates of each rhCYP isozyme were incubated as the above method to confirm the activity of the incubation system. The samples were prepared in triplicates. The reactions were terminated by adding three times the volume of ice-cold acetonitrile (600 µL) and stored at −20 °C until analysis. After pre-treatment, the samples were determined by the LC–MS/MS (Shimadzu Exion-Triple Quad 4500) method. The relative contribution rate of each isozyme to the metabolism of 7–16 was evaluated in HLMs using the following formula: Contributionx% = Vx × Abundancex (pmol/mg protein)/Σ(Vi × Abundancei). Vx (µL/min/pmol) is the production rate of metabolites for each rhCYP isozyme.

5-HT2A receptor = molecular target: 5-HT2A receptor; design: method as in PMID 35279606; conditions: cited from earlier work
OATP1B1 = molecular target: T1, OATP1B1 (Homo sapiens, UniProt Q9Y6L6)
T1 sequence (Q9Y6L6 1-691): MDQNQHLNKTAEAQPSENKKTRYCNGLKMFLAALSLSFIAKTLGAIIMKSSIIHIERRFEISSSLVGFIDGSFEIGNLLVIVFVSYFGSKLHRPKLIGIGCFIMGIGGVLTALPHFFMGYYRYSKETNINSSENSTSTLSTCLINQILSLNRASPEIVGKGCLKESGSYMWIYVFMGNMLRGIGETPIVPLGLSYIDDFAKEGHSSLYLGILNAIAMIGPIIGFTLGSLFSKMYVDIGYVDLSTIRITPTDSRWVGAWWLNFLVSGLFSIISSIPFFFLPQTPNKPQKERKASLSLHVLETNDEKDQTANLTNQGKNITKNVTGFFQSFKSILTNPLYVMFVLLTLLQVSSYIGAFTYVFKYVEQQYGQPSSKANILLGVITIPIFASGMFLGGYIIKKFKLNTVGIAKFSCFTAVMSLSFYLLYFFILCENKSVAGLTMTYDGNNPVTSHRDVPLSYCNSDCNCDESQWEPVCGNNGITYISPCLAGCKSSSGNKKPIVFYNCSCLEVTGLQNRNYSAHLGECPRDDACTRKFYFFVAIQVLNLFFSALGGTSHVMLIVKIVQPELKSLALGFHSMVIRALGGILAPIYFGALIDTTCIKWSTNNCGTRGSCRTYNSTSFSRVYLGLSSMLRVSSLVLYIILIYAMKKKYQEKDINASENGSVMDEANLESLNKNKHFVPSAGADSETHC

CYP2C19 = assay: Metabolic phenotype by rhCYP isozymes, CYP2C19; format: in vitro ADME, human; conditions: 7–16 1 µM
Method: as §1

[1] = Metabolite identification in rat liver microsomes; format: in vitro ADME; conditions: 7–16 10 µM, liver microsomes 1 mg/mL, NADPH, 37 °C, 60 min
Method: In accordance with our previous methods, 7–16 (10 µM) was incubated with mouse, rat, dog, monkey, and human liver microsome proteins (1 mg/mL) in 100 mM sodium phosphate buffer (pH 7.4) containing 10 mM magnesium chloride and 2 mM NADPH at 37 °C for 60 min. All samples were prepared in duplicates. The reactions were terminated by adding three times the volume of ice-cold acetonitrile (600 µL) and stored at −20 °C until analysis. Control samples without NADPH and 0-time point samples were included. As a positive control, testosterone (10 µM), which was metabolized to produce the hydroxylation metabolite, was used as a substrate to confirm the activity of the incubation system.
After pre-treatments, the samples were analyzed by an Acquity UPLC system coupled with a diode array detector (Waters Corporation, Milford, MA, USA) and Q Exactive HRMS (Thermo Electron Corporation, Waltham, MA, USA) (UPLC–UV-Q Exactive HRMS). Samples were separated on an Agilent XDB C18 column (150 × 2.1 mm i.d. 3.5 μm, Agilent Corporation, Santa Clara, CA, USA) at 40 °C by gradient elution with water and acetonitrile containing 0.1% formic acid. The flow rate was 0.40 mL/min. The ultraviolet (UV) detection wavelength was 286 nm. Q Exactive HRMS were operated at positive ion mode (3.5 kV) using a heating electrospray ionization source. Mass calibration was required to be performed before conducting experiments so as to achieve the best mass accuracy and mass calibration should be performed every five days. The metabolites were detected by full MS/dd-MS^2 analysis from m/z 100 to m/z 1000. The resolution of the first-class scan and second-class scan was 70,000 and 17,500, respectively. Thermo Compound Discover software was used to identify expected and unknown metabolites, and we finally proposed the 7–16 metabolic pathways based on the deduced metabolites and relevant drug biotransformation knowledge.

[2] = Excretion and metabolite identification in urine and feces of intact rats; format: in vivo, Sprague-Dawley rats; conditions: intact rats, 0–168 h, oral 3 mg/100 µCi/kg
Method: In the urine and feces excretion experiment, six rats (3 females and 3 males) were administered a single oral dose of [^14C]7–16 at 3 mg/100 µCi/kg. Urine, feces and cage washing/cleaning solution samples were collected from 0 to 168 h following drug administration at the following time intervals: 0–8, 8–24 h (0–24 h for feces), 24–48, 48–72, 72–96, 96–120, 120–144, and 144–168 h. In the biliary excretion experiment, 8 rats using a bile duct cannula (BDC) (4 females and 4 males) were administered a single oral dose of [^14C]7–16 at 3 mg/100 µCi/kg. Bile, urine, feces, and cage washing solution were collected from before and 0–72 h after oral administration at the following time intervals: 0–4, 4–8 (urine 0–8), 8–24 (feces 0–24), 24–48, and 48–72 h. All samples were collected and refrigerated at −20 °C until determination of the radioactive concentrations by liquid scintillation counter (Perkin Elmer Corporation, Waltham, MA, USA). Urine, feces, and bile samples at each time period were mixed by equal percentages of either volume or weight. After the mixed samples were treated, the radio-profiles and metabolite identification in the bile, urine, and feces samples were carried out by LC-RAM and UPLC-Q Exactive HRMS, and the TRA% of each metabolite in plasma and the percentage of dose (dose%) of each compound in urine, feces, and bile samples were calculated.

Compound: CN1CCC(N(Cc2ccc(F)cn2)C(=O)NCc2ccc(OCC(F)(F)F)cc2)CC1 [7–16, 3-(4-(2,2,2-trifluoroethoxy)benzyl)-1-((5-fluoropyridin-2-yl)methyl)-1-(1-methylpiperidin-4-yl) urea]
- relative contribution of CYP2C9 to metabolism (CYP2C9): little or no contribution
- IC50 (5-HT2A receptor; previous study, read-out: 5-HT2A inverse agonist activity IC50): 2.1 nM
- fold higher inverse agonist activity than pimavanserin (5-HT2A receptor; versus pimavanserin): 23 fold
- IC50 (OATP1B1): > 100000 nM
- relative contribution of CYP2C19 to metabolism (CYP2C19): little or no contribution
- Relative Abundance, UV Area% Rat [1]: 86.1%
- recovery of radioactivity in cage rinse/wash, percent of dose [2]: 4.06%
- recovery of radioactivity in feces, percent of dose [2]: 55.0%
- recovery of radioactivity in urine, percent of dose [2]: 39.9%
- total recovery of radioactivity, percent of administered dose ([2]; mean of both sexes): 98.9%
